Assays:
endogenous cdk2 = endogenous cdk2 kinase activity after transient transfection of NIH/3T3 cells; type: cell-based; conditions: NIH/3T3 transfected with pEF6/V5 constructs; 48 h after transfection
Description: Kinase assays: Cell lysates from NIH/3T3 were prepared by resuspending pelleted cells in 500 μl of lysis buffer (50 mM Tris, 5 mM EDTA, 250 mM NaCl, 50 mM NaF, 0.1% Triton, 0.1 mM Na3VO4, plus protease inhibitors). An equal amount of protein for each fraction (100 μg) was immunoprecipitated with a polyclonal anti-cdk2 antibody (De Luca et al., 1997, J Biol Chem, 272, 20971-4). The complexes were pulled down with protein A-Sepharose and washed three times with lysis buffer and twice with lysis buffer containing 400 mM NaCl. The complexes were equilibrated in kinase assay buffer (20 mM HEPES pH 7.4, 10 mM MgAc, […], 1 mM DTT). In order to detect the in vitro inhibition of cdk2 activity, each sample was incubated with an equal amount (0.1 μg) of each pGEX-2T fusion protein, in a final volume of 20 μl of kinase buffer, using 5 μCi/sample of γ-ATP (Amersham Biosciences, Piscataway, N.J.) and 2 μg of Histone H1 for 30 minutes at 30° C. Kinase assays were repeated at least three times, giving an inter assay standard deviation within 10% after normalization for protein amount. […]
In FIG. 3a, asynchronously growing NIH/3T3 cells were transfected with pEF6/V5 vector, pEF6/V5-Spa310 or pEF6/V5-spacer. […] Phosphorylation of histone H1 was monitored by autoradiography. […]

NIH/3T3 cells = assay: colony formation assay; type: cell-based; conditions: NIH/3T3 transfected with 5 μg pEF6/V5 construct; blasticidin S selection; colonies counted after eight days
Description: Colony formation assay: The effects of the pRb2/p130 spacer domain and 39 aa small peptide overexpression on cellular growth was examined by colony formation assays. Exponentially growing NIH/3T3 cells were seeded in 100-mm dishes at a density of 5×10^5 cells per 100 mm dish the day before transfection. Cells were transfected with 5 μg of pEF6/V5-spacer, pEF6/V5-Spa310 or the control vector pEF6/V5 carrying the brasticidin S-resistant gene (bsr) as a selectable marker gene. For selection, blasticidin S hydrochloride (Funakoshi, Tokyo, Japan) was added to the culture medium 48 h after transfection, at a final concentration of 10 μg/mL. After 6 days, 1×10^3 of blasticidin S-resistant cells in each well were plated in triplicate in 60-mm dishes, in order to evaluate their colony-forming ability. Cells were then incubated at 37° C. for eight days in a selecting medium containing blasticidin S hydrochloride at a final concentration of 10 μg/mL. Colonies, defined as groups of a minimum of 50 cells, were counted after staining with 2% methylene blue in 95% ethanol.
As presented in FIGS. 4a and 4b, the spacer region caused a decrease on the ability of the cells to form colonies of about 50% and the Spa310 of about 60%. […] After six days, an equal number of resistant cells were plated in 60-mm dishes and colony-forming ability was evaluated after eight days of continuous selection. […]

Molecule | inhibition of cdk2-dependent histone phosphorylation (endogenous cdk2) (endogenous cdk2) | decrease on the ability of the cells to form colonies (NIH/3T3 cells)
Spa310: pRb2/p130 amino acids 641-679 (39 amino acids long), SEQ ID NO:3; LTPRRVTEVRADTGGLGRSITSPTTLYDRYSSPPASTTR (listed as Homo sapiens) | significant inhibition | about 60%
Spacer: full-length pRb2/p130 spacer domain, amino acids 616-828 (SEQ ID NO:20) (protein, listed as Homo sapiens) VPTCEEVMPPQNLERADEICIAGSPLTPRRVTEVRADTGGLGRSITSPTTLYDRYSSPPASTTRRRLFVENDSPSDGGTPGRMPPQPLVNAVPVQNVSGETVSVTPVPGQTLVTMATATVTANNGQTVTIPVQGIANENGGITFFPVQVNVGGQAQAVTGSIQPLSAQALAGSLSSQQVTGTTLQVPGQVAIQQISPGGQQQKQGQSVTSSSN | significant inhibition | about 50%
